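Growth conditions: 96-well plates. Treatment: test compound, 48 hours, 5 concentrations. Analysis: linear interpolation between bracketing concentrations; unreached endpoints set to highest concentration. GI50 = concentration required for 50% inhibition of growth.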 The source made the active and inactive calls. Cut-off read from the data, not from the text of the source: active = GI50 up to about 1.1 µM and inactive = higher.
Key:
Test in all cases: inhibition of tumour cell growth, NCI panel, 48 h
[1] = tested on: T47D
[2] = tested on: HOP-92
[3] = tested on: NCI-H460
[4] = tested on: NCI-H23
[5] = tested on: UACC-257
[6] = tested on: CCRF-CEM
[7] = tested on: SF-295
[8] = tested on: SF-268
[9] = tested on: HL-60
[10] = tested on: RXF 393
[11] = tested on: PC-3
[12] = tested on: U-251
[13] = tested on: IGROV-1
[14] = tested on: MDA-MB-231
[15] = tested on: 786-0
[16] = tested on: HCT-15
[17] = tested on: BT-549
[18] = tested on: DU-145
[19] = tested on: RPMI-8226
[20] = tested on: SN12C
[21] = tested on: HT-29
[22] = tested on: COLO 205
[23] = tested on: HCC 2998
[24] = tested on: SK-OV-3
[25] = tested on: MOLT-4
[26] = tested on: OVCAR-4
[27] = tested on: A498
[28] = tested on: SF-539
[29] = tested on: ACHN
[30] = tested on: LOX IMVI
[31] = tested on: SNB-75
[32] = tested on: M14
[33] = tested on: OVCAR-3
[34] = tested on: OVCAR-8
[35] = tested on: KM12
[36] = tested on: SK-MEL-5
[37] = tested on: CAKI-1
[38] = tested on: A549
[39] = tested on: K562
[40] = tested on: Malme-3M
[41] = tested on: HCT-116
[42] = tested on: NCI-H226
[43] = tested on: SR
[44] = tested on: NCI-H522
[45] = tested on: Hs-578T
[46] = tested on: MDA-N
[47] = tested on: SK-MEL-2
[48] = tested on: SNB-19
[49] = tested on: SK-MEL-28
[50] = tested on: OVCAR-5
[51] = tested on: NCI/ADR-RES
[52] = tested on: MCF7
[53] = tested on: UO-31
[54] = tested on: TK-10
[55] = tested on: SW-620
[56] = tested on: EKVX
[57] = tested on: HOP-62
[58] = tested on: UACC-62
[59] = tested on: MDA-MB-435

Measured: GI50

OCCCNCC(O)c1ccc(OCc2ccccc2)c(OCc2ccccc2)c1 (centres undefined)
inactive: [1] 15.6 µM | [2] 7.59 µM | [3] 7.52 µM | [4] 17.5 µM | [5] 11.2 µM | [6] 8.15 µM | [7] 10.4 µM | [8] 15.3 µM | [9] 6.38 µM | [10] 23.4 µM | [11] 10.9 µM | [12] 9.75 µM | [13] 10.2 µM | [14] 14 µM | [15] 7.48 µM | [17] 15.8 µM | [18] 16.9 µM | [19] 8.47 µM | [20] 15.3 µM | [21] 8.24 µM | [22] 4.76 µM | [23] 5.3 µM | [24] 9.51 µM | [25] 8.3 µM | [26] 7.41 µM | [27] 11.9 µM | [28] 10.9 µM | [29] 10.4 µM | [30] 6.35 µM | [31] 6.12 µM | [32] 17.1 µM | [33] 15.9 µM | [34] 11.4 µM | [35] 12.5 µM | [36] 7.03 µM | [37] 17.6 µM | [38] 11.6 µM | [39] 8.45 µM | [40] 15.8 µM | [41] 8.47 µM | [42] 12.4 µM | [43] 10.9 µM | [44] 14.1 µM | [45] 13.6 µM | [46] 9.64 µM | [47] 8.02 µM | [48] 17.3 µM | [49] 8.95 µM | [50] 15.7 µM | [51] 18.7 µM | [52] 8.04 µM | [53] 15 µM | [54] 7.91 µM | [55] 8.34 µM | [56] 15 µM | [57] 14.3 µM | [58] 20 µM | [59] 7.8 µM
13.1 µM: [16]
